Measured values published in US4429127A, “Quinoline carboxylic acid derivative” (Kyorin Pharmaceutical Co., Ltd., priority 1981, dated 1984).
In brackets after ≈: the same amount, converted by molar mass. Where two headings read alike, the source gives them in different places.

How the values were obtained:
[1] = test system: gram-negative bacteria; test: In vitro antibacterial activity against gram-negative bacteria (in words); type: cell-based; details: for Antibacterial activity on gram-negative bacteria, in words: in vitro
Method: (§1) The minimum inhibitory concentration (MIC) of the compound (I) was determined by an agar dilution technique (the standard method of Japan Society of Chemotherapy) against standard strains of gram-positive and gram-negative bacteria.

[2] = test system: Streptococcus pyogenes IID692; test: In vitro antibacterial activity (MIC, agar dilution); type: cell-based
Method: as §1
(§2) Inoculum size: 10^8 cells/ml

[3] = test system: Serratia marcescens IID618; test: as above; type: cell-based; details: inoculum 10^8 cells/ml
Method: as §1, §2

[4] = test system: Haemophilus influenzae IID986; test: as above; type: cell-based
Method: as §1, §2

[5] = test system: S. aureus IID670 (Terajima); test: as above; type: cell-based; details: Staphylococcus aureus
Method: as §1, §2

[6] = test system: S. epidermidis IID866; test: as above; type: cell-based; details: Staphylococcus epidermidis, inoculum 10^8 cells/ml
Method: as §1, §2

[7] = test system: Staphylococcus aureus 209P; test: as above; type: cell-based
Method: as §1, §2

[8] = test system: Proteus vulgaris IFO3167; test: as above; type: cell-based
Method: as §1, §2

[9] = test system: S. pyogenes S-8; test: as above; type: cell-based; details: Streptococcus pyogenes, S8
Method: as §1, §2

[10] = test system: S. pneumoniae IID552; test: as above; type: cell-based; details: Streptococcus pneumoniae
Method: as §1, §2

[11] = test system: P. morganii IID602; test: as above; type: cell-based; details: Morganella morganii, inoculum 10^8 cells/ml
Method: as §1, §2

[12] = test system: Alcaligenes faecalis 0104002; test: as above; type: cell-based; details: inoculum 10^8 cells/ml
Method: as §1, §2

[13] = test system: Shigella sonnei IID969; test: as above; type: cell-based; details: inoculum 10^8 cells/ml
Method: as §1, §2

[14] = test system: Klebsiella pneumoniae IFO3512; test: as above; type: cell-based
Method: as §1, §2

[15] = test system: Yersinia enterocolitica IID981; test: as above; type: cell-based; details: inoculum 10^8 cells/ml
Method: as §1, §2

[16] = test system: P. aeruginosa IFO12689; test: as above; type: cell-based; details: Pseudomonas aeruginosa
Method: as §1, §2

[17] = test system: P. mirabilis IID994; test: as above; type: cell-based; details: Proteus mirabilis, inoculum 10^8 cells/ml
Method: as §1, §2

[18] = test system: Citrobacter freundii IID976; test: as above; type: cell-based; details: inoculum 10^8 cells/ml
Method: as §1, §2

[19] = test system: E. coli ATCC10536; test: as above; type: cell-based; details: Escherichia coli
Method: as §1, §2

[20] = test system: Acinetobacter enitratus IID876; test: as above; type: cell-based; details: inoculum 10^8 cells/ml
Method: as §1, §2

[21] = test system: Enterobacter cloacae IID977; test: as above; type: cell-based; details: inoculum 10^8 cells/ml
Method: as §1, §2

[22] = test system: Bacillus subtilis PCI 219; test: as above; type: cell-based; details: PCI219
Method: as §1, §2

[23] = test system: S. faecalis IID682; test: as above; type: cell-based; details: Enterococcus faecalis
Method: as §1, §2

[24] = test system: Salmonella enteritidis IID604; test: as above; type: cell-based; details: Salmonella enterica
Method: as §1, §2

[25] = test system: E. coli NIHJ JC-2; test: as above; type: cell-based; details: Escherichia coli, NIHJJC2
Method: as §1, §2

[26] = test system: Pseudomonas aeruginosa V-1; test: as above; type: cell-based; details: V1
Method: as §1, §2

[27] = test system: gram-positive bacteria; test: In vitro antibacterial activity against gram-positive bacteria (in words); type: cell-based
Method: as §1

[28] = test system: E. coli ML4707; test: MIC against the infecting strain (Table 2); type: cell-based; details: Escherichia coli, ML4707
Method: as §1

[29] = test system: Staphylococcus aureus Smith; test: MIC against the infecting strain (Table 2); type: cell-based
Method: as §1

[30] = test system: E. coli ML4707; test: In vivo antibacterial activity, systemic infection in mice; parameters: species or system mice (male, ICR); details: Escherichia coli
Method: (§3) The in vivo antibacterial activity of the compound (I) was determined in systemic infection in mice. The systemic infections were produced in male mice ICR (body weight, 19±2 g) by inoculating intraperitoneally with Staphylococcus aureus Smith and E. coli ML4707. The compounds were administered orally in divided doses at 0 and 4 hrs. after infection. The therapeutic effect of drugs was judged from the number of mice surviving after 7 days of observation. A comparison of in vivo antibacterial activity was made on the basis of the […] effective dose (ED50) calculated by the method of Litchfield and Wilcoxon.

[31] = test system: Staphylococcus aureus Smith; test: as above; parameters: species or system mice (male, ICR); details: Staphylococcus aureus, 168 h
Method: as §3

[32] = test system: Streptococcus spp.; test: In vitro antibacterial activity against Streptococcus spp. (in words); type: cell-based
Method: as §1

[33] = test system: gram-negative bacteria; details: background; cited from earlier work
[34] = test system: gram-positive bacteria; details: background; cited from earlier work
[35] = Streptococcus pyogenes IID692, inoculum 10^8 cells/ml, read-out: MIC
[36] = S. aureus IID670 (Terajima), inoculum 10^8 cells/ml, read-out: MIC
[37] = Staphylococcus aureus 209P, inoculum 10^8 cells/ml, read-out: MIC
[38] = Proteus vulgaris IFO3167, inoculum 10^8 cells/ml, read-out: MIC
[39] = S. pyogenes S-8, inoculum 10^8 cells/ml, read-out: MIC
[40] = S. pneumoniae IID552, inoculum 10^8 cells/ml, read-out: MIC
[41] = P. aeruginosa IFO12689, inoculum 10^8 cells/ml, read-out: MIC
[42] = Bacillus subtilis PCI 219, inoculum 10^8 cells/ml, read-out: MIC
[43] = S. faecalis IID682, inoculum 10^8 cells/ml, read-out: MIC
[44] = Salmonella enteritidis IID604, inoculum 10^8 cells/ml, read-out: MIC
[45] = Pseudomonas aeruginosa V-1, inoculum 10^8 cells/ml, read-out: MIC

Row | Structure (SMILES) | MIC [2, 35] [µg/mL] | MIC ([4]; Haemophilus influenzae, IID986) [µg/mL] | MIC [5, 36] [µg/mL] | MIC [7, 37] [µg/mL] | MIC [8, 38] [µg/mL] | MIC [9, 39] [µg/mL] | MIC [10, 40] [µg/mL] | MIC [13] [µg/mL] | MIC [16, 41] [µg/mL] | MIC [22, 42] [µg/mL] | MIC [23, 43] [µg/mL] | MIC [24, 44] [µg/mL] | MIC [26, 45] [µg/mL] | Antibacterial activity on gram-positive bacteria, in words [27] | MIC [28] [µg/mL] | Antibacterial activity on gram-negative bacteria, in words [1] | Susceptibility of Streptococcus spp., in words [32] | Effectiveness in therapy of infections due to gram-negative bacteria, in words [33] | MIC ([14]; Klebsiella pneumoniae, IFO3512) [µg/mL] | Activity against most gram-positive bacteria, in words [34] | other results
1 | CCn1cc(C(=O)O)c(=O)c2cc(F)c(N3CCNCC3)c(F)c21 [Metabolite, 1-ethyl-6,8-difluoro-1,4-dihydro-4-oxo-7-(1-piperazinyl)quinoline-3-carboxylic acid] | 3.13 (≈ 9.28 µM) | 0.025 (≈ 0.0741 µM) | 0.78 (≈ 2.31 µM) | 0.78 (≈ 2.31 µM) | 0.05 (≈ 0.148 µM) | 12.5 (≈ 37.1 µM) | 6.25 (≈ 18.5 µM) | 0.05 (≈ 0.148 µM) | 1.56 (≈ 4.62 µM) | 0.2 (≈ 0.593 µM) | 3.13 (≈ 9.28 µM) | 0.1 (≈ 0.296 µM) | 0.78 (≈ 2.31 µM) | – | – | – | – | – | – | – | Activity of the metabolite against gram-negative bacteria, in words ([1]; general statement): superior activity against gram-negative bacteria; MIC [3]: 0.1 µg/mL (≈ 0.296 µM); MIC [6]: 0.78 µg/mL (≈ 2.31 µM); MIC [11]: 0.1 µg/mL (≈ 0.296 µM); MIC [12]: 0.78 µg/mL (≈ 2.31 µM); MIC ([14]; Klebsiella pneumoniae IFO3512, inoculum 10^8 cells/ml, read-out: MIC): 0.05 µg/mL (≈ 0.148 µM); MIC [15]: 0.1 µg/mL (≈ 0.296 µM); MIC [17]: 0.05 µg/mL (≈ 0.148 µM); MIC [18]: 0.1 µg/mL (≈ 0.296 µM); MIC ([19]; E. coli ATCC10536, inoculum 10^8 cells/ml, read-out: MIC): 0.05 µg/mL (≈ 0.148 µM); MIC [20]: 0.78 µg/mL (≈ 2.31 µM); MIC [21]: 0.1 µg/mL (≈ 0.296 µM); MIC ([25]; E. coli NIHJ JC-2, inoculum 10^8 cells/ml, read-out: MIC): 0.05 µg/mL (≈ 0.148 µM)
2 | CCn1cc(C(=O)O)c(=O)c2ccc(C)nc21 [NA, Nalidixic acid] | – | 1.56 (≈ 6.72 µM) | – | – | – | – | – | 1.56 (≈ 6.72 µM) | – | – | – | – | – | inactive on many strains of gram-positive bacteria | 3.13 (≈ 13.5 µM) | exerted antibacterial activity mainly on gram-negative bacteria | not susceptible | highly effective in the therapy of infections due to gram-negative bacteria | 1.56 (≈ 6.72 µM) | only weak activities against most gram-positive bacteria | MIC ([29]; Staphylococcus aureus): 25 µg/mL (≈ 108 µM); ED50 ([30]; ML4707, po, 168 h): 38.3 mg/kg; ED50 ([31]; po): 635 mg/kg; MIC ([2]; Streptococcus pyogenes, IID692): > 100 µg/mL; MIC ([5]; IID670): > 100 µg/mL; MIC ([7]; Staphylococcus aureus, 209P): 100 µg/mL (≈ 431 µM); MIC ([8]; Proteus vulgaris, IFO3167): 3.13 µg/mL (≈ 13.5 µM); MIC [9]: > 100 µg/mL; MIC ([10]; IID552): > 100 µg/mL; MIC ([16]; IFO12689): > 100 µg/mL; MIC ([19]; ATCC10536): 3.13 µg/mL (≈ 13.5 µM); MIC ([22]; Bacillus subtilis): 6.25 µg/mL (≈ 26.9 µM); MIC ([23]; IID682): > 100 µg/mL; MIC [24]: 12.5 µg/mL (≈ 53.8 µM); MIC [25]: 3.13 µg/mL (≈ 13.5 µM); MIC ([26]; Pseudomonas aeruginosa): 100 µg/mL (≈ 431 µM)
3 | CCn1cc(C(=O)O)c(=O)c2cnc(N3CCNCC3)nc21 [PPA, Pipemidic acid] | > 100 | – | 25 (≈ 82.4 µM) | 25 (≈ 82.4 µM) | 3.13 (≈ 10.3 µM) | > 100 | > 100 | 1.56 (≈ 5.14 µM) | 25 (≈ 82.4 µM) | 6.25 (≈ 20.6 µM) | > 100 | 12.5 (≈ 41.2 µM) | 12.5 (≈ 41.2 µM) | inactive on many strains of gram-positive bacteria | 1.56 (≈ 5.14 µM) | exerted antibacterial activity mainly on gram-negative bacteria | not susceptible | highly effective in the therapy of infections due to gram-negative bacteria | 1.56 (≈ 5.14 µM) | only weak activities against most gram-positive bacteria | MIC ([29]; Staphylococcus aureus Smith, read-out: MIC): 12.5 µg/mL (≈ 41.2 µM); ED50 ([30]; ML4707, 168 h, mice, oral at 0 and 4 hrs. after infection, challenge 1.2 × 10^7 cells/animal in saline, 7 days survival, read-out: ED50): 38.9 mg/kg; ED50 ([31]; mice, oral at 0 and 4 hrs. after infection, challenge 2.4 × 10^5 cells/animal in BHI containing mucin, 7 days survival, read-out: ED50): 231 mg/kg; MIC ([4]; Haemophilus influenzae IID986, inoculum 10^8 cells/ml, read-out: MIC): 3.13 µg/mL (≈ 10.3 µM); MIC ([19]; ATCC10536): 1.56 µg/mL (≈ 5.14 µM); MIC [25]: 1.56 µg/mL (≈ 5.14 µM)
4 | CCn1cc(C(=O)O)c(=O)c2cnc(N3CCCC3)nc21 [piromidic acid] | – | – | – | – | – | – | – | – | – | – | – | – | – | – | – | – | – | highly effective in the therapy of infections due to gram-negative bacteria | – | only weak activities against most gram-positive bacteria | –
